# Experimental data: patent publication US20070110802A1, “Wet granulation process” (priority 2005, published 2007)
# Legend:
# [1] = pH dependent aqueous solubility of Compound A; assay type: physicochemical
# Description: The material was analyzed for hydrate formation.
# Description for physchem: The pKa of a compound is determined experimentally or it can be calculated, such as with ACDLABS8.0 software.
compound,measurement,setting,value
"Cc1c(Cl)cccc1S(=O)(=O)Nc1nc(CCN2CCOCC2=O)cs1 [Compound A, 3-chloro-2-methyl-N-(4-(2-(3-oxo-4-morpholinyl)ethyl)-1,3-thiazol-2-yl)benzenesulfonamide]",pH dependent solubility (FIG. 9),[1]; solubility versus pH,solubility increases at a pH consistent with the approximate pKa value
same,solubility,"[1]; water, pH 4, aqueous buffer",< 15 µg/mL
same,pKa,physchem,~6.6
